Results from US20250353849A1, “PURINE COMPOUNDS FOR TREATING DISORDERS” (MARVEL BIOTECHNOLOGY, priority 2021, published 2025).
Like-named read-outs stand apart in the source and are kept apart here.

Key:
ADORA2A [1] = target: T1, ADORA2A (Homo sapiens, UniProt P29274); test: GPCR screening, Calcium Flux (calcium mobilization), Agonist format; format: cell-based; conditions: read-out: Max Response
Procedure: (§1) Cell lines were expanded from freezer stocks according to standard procedures. Cells were seeded in a total volume of 20 μL into black-walled, clear-bottom, Poly-D-lysine coated 384-well microplates and incubated at 37° C. for the appropriate time prior to testing.
(§2) Assays were performed in 1×Dye Loading Buffer consisting of 1×Dye, 1×Additive A and 2.5 mM Probenecid in HBSS/20 mM Hepes. Probenicid was prepared fresh. Cells were loaded with dye prior to testing. Media was aspirated from cells and replaced with 20 μL Dye Loading Buffer. Cells were incubated for 30-60 minutes at 37° C.
For agonist determination, cells were incubated with sample to induce response. […] Cells were incubated for 30 minutes at room temperature in the dark to equilibrate plate temperature.
Compound activity was analyzed using CBIS data analysis suite (ChemInnovation, CA).
(§3) When the calcium was released, the fluorescence of the dye was increased and the increase was measured in real-time.

ADORA2A [2] = target: T1, ADORA2A; test: GPCR screening, Calcium Flux (calcium mobilization), Antagonist format; format: cell-based; conditions: for Emax: read-out: Max Response
Procedure: as §1, §2
For antagonist determination, cells were pre-incubated with sample followed by agonist challenge at the EC80 concentration. Intermediate dilution of sample stocks was performed to generate 3X sample in assay buffer. After dye loading, cells were removed from the incubator and 10 μL 3X sample was added. Cells were incubated for 30 minutes at room temperature in the dark to equilibrate plate temperature. Vehicle concentration was 1%.
Compound antagonist activity was measured on a FLIPR Tetra (MDS). Calcium mobilization was monitored for 2 minutes and 10 μL EC80 agonist in HBSS/20 mM Hepes was added to the cells 5 seconds into the assay.
For antagonist and negative allosteric modulation mode assays, percentage inhibition is calculated using the following formula: […]
as §3
FIGS. 1 and 2 show percent reacted (Y) versus concentration in μM (X). Compounds were tested in antagonist mode with the requested GPCR Biosensor Assay. For the antagonist assay, data was normalized to the maximal and minimal response observed in the presence of EC80 ligand and vehicle.

[3] = Calcium Flux, Antagonist format
[4] = Calcium Flux, Antagonist format, EC80 0.021 μM NECA, read-out: RC50 (Result Type IC50)
[5] = antagonist mode, text to FIGS. 1 and 2, EC80 0.021 μM NECA, read-out: half maximal inhibitory concentration (IC50)

T1 sequence (P29274 whole entry): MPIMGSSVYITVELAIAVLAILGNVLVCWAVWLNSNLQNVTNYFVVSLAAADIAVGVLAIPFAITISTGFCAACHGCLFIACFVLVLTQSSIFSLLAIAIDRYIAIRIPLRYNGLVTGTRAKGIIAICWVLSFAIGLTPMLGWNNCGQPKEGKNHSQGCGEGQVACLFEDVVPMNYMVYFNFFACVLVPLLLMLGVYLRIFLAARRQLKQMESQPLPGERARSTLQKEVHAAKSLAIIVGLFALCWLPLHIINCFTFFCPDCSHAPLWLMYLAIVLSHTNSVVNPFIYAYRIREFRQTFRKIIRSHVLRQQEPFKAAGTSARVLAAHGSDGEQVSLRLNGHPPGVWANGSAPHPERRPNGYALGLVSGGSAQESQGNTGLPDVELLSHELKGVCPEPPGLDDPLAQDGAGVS

| Emax (ADORA2A [1]) | Curve Bottom (ADORA2A [2]; [3]) | Curve Top (ADORA2A [2]; [3]) | Hill (ADORA2A [2]; [3]) | IC50 (ADORA2A [2]; [4]) | Emax (ADORA2A [2]; [3]) | IC50 (ADORA2A [2]; [5]) | Structure (SMILES) |
| --- | --- | --- | --- | --- | --- | --- | --- |
| 0% | 7.8668 | 99.957 | 1.7211 | 174 nM | 99.1% | 174 nM | CCn1c(=O)c2c(nc(/C=C/c3ccc(OC)c(OCF)c3)n2C)n(CC)c1=O [Compound 8, (E)-1,3-diethyl-8-(3-(fluoromethoxy)-4-methoxystyryl)-7-methyl-3,7-dihydro-1H-purine-2,6-dione] |
| 0% | −.090144 | 99.922 | 1.3438 | 95.5 nM | 99.7% | 95.5 nM | CCn1c(=O)c2c(nc(/C=C/c3ccc(OCF)c(OC)c3)n2C)n(CC)c1=O [Compound 9, (E)-1,3-diethyl-8-(4-(fluoromethoxy)-3-methoxystyryl)-7-methyl-3,7-dihydro-1H-purine-2,6-dione] |
